From PubChem BioAssay AID2359 (Sanford-Burnham Center for Chemical Genomics, 2010)

Target: Kappa-type opioid receptor (Homo sapiens) (UniProt P41145)
Assay: KOR agonist analogs, imaging readout, SAR follow-up, image-based (AID 2359)
Conditions: KOR agonist image-based assay (receptor translocation imaging)

Chain of Kappa-type opioid receptor (Homo sapiens) (P41145 whole entry, looked up): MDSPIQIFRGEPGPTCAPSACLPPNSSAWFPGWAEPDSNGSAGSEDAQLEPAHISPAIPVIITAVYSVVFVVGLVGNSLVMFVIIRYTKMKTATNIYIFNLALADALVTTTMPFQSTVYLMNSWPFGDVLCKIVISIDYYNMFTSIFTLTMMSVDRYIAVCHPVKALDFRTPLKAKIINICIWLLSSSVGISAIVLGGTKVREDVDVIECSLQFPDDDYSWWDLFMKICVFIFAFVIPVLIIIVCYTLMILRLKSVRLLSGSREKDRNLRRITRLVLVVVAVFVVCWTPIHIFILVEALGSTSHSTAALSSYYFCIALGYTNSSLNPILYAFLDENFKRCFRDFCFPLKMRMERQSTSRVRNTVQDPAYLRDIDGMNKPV

Which EC50 does the source give for `COc1ccc(CN(Cc2ccccn2)C(=O)CN2C(=O)COc3ccccc32)cc1` here?
Its EC50 is 10.1 µM.

With `CCCCN(Cc1cc2cc(C)ccc2[nH]c1=O)C(=O)c1ccccn1` as the molecule, how does the EC50 read?
Its EC50 is 4.93 µM.
